In data set [1] the test system is KMS12-BM (NIK WT) multiple myeloma cells. The data set can be described thus: Antiproliferative activity on KMS12-BM multiple myeloma cells (CellTiter-Glo, 96 hr), Biological Assay C. The data set is classed as cell-based, human. The note with it: averaged values, read-out: KMS-12 Proliferation inhibition (IC50 (nM)). In outline:
(§1)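 JJN-3 and KMS12-BM cells in RPMI 1640 with 10% FCS were plated at 15000–20000 cells/well and treated 96 h with a 9-point 1:3 dilution series (0.3% DMSO). Viability read by CellTiter-Glo luminescence, blank (time-zero cells) subtracted, expressed as % of untreated control; duplicate wells.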

The test system of data set [2] is JJN-3 (NIK translocated) multiple myeloma cells. The data set can be described thus: Antiproliferative activity on JJN-3 multiple myeloma cells (CellTiter-Glo, 96 hr), Biological Assay C. The data set is classed as cell-based, human. The note with it: JJN-3 (NIK translocated) cells, averaged values, read-out: JJN-3 Proliferation inhibition (IC50 (nM)). An outline of the steps:
as §1

Data set [3] has as its target recombinant human NF-kappaB-inducing kinase (NIK/MAP3K14) (Homo sapiens, UniProt Q99558). The data set is described as follows: Inhibition of auto-phosphorylation of recombinant human NIK/MAP3K14 activity (AlphaScreen), Biological Assay A. The data set is classed as biochemical. As to conditions: averaged values over all measurements on all batches. In outline:
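GST-tagged enzyme (0.2 nM) incubated with compound and 25 μM ATP in 50 mM Tris pH 7.5, 5 mM MgCl2, 1 mM EGTA, 1 mM DTT, 0.1 mM Na3VO4, 1% DMSO, 1 h at 25 °C. Stopped with anti-phospho-IKK Ser176/180 antibody; AlphaScreen bead read, blank-subtracted, IC50 from sigmoidal fit.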

The test system of data set [4] is P-IKKα levels in L363 (NIK translocated multiple myeloma) cells. The data set is described as follows: Effect of compounds on P-IKKα levels in L363 cells (Mesoscale sandwich immuno-assay), Biological Assay B. As to conditions: 2 hr treatment, averaged values, read-out: Inhibition of pIKKα_L-363 (IC50 (nM)). The data set is classed as cell-based, human. In outline:
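L363 NIK-translocated myeloma cells primed 24 h with 1 μg/ml BAFF (stock), then treated 2 h with compound (1% DMSO, 8-point 1:3 dilutions). Lysate P-IKKα measured by Mesoscale sandwich immunoassay; MG132+BAFF controls, blank with 10 μM ADS125117 subtracted. IC50 from sigmoidal fit of % inhibition versus log concentration.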

Read-outs that look alike come from different tables or passages of the source. Where only a bound is given, the exact number is not on record here.

Chain of recombinant human NF-kappaB-inducing kinase (NIK/MAP3K14) (Q99558 whole entry): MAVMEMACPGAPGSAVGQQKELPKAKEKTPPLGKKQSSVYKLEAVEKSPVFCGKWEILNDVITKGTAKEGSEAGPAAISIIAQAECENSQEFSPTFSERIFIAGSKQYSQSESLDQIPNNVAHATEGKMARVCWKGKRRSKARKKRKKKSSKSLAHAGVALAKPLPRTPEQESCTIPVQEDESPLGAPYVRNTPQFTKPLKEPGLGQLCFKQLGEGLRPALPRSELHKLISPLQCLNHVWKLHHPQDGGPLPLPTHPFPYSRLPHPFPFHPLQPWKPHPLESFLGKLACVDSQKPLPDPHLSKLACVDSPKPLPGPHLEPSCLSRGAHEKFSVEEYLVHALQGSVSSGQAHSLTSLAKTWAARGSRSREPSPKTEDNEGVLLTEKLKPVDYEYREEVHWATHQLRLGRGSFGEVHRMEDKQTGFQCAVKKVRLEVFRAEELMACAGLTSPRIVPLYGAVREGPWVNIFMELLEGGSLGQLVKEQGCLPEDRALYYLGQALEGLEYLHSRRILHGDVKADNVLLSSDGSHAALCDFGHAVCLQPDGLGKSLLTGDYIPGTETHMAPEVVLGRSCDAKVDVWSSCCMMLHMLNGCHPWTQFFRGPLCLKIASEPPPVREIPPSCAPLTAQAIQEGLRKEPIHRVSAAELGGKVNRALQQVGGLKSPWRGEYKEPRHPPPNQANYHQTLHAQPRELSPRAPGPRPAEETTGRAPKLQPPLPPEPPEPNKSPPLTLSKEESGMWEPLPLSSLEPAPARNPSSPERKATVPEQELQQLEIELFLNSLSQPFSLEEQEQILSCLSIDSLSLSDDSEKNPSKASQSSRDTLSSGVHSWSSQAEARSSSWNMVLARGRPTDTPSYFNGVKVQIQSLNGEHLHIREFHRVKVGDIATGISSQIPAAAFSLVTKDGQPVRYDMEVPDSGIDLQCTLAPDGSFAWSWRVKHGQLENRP

With `Cc1ccc(C#N)cc1Nc1nccc(-c2cc(C#N)c3c(c2)[C@@](C)(CO)CN3)n1` [Compound 131], the melting point stood at 174 °C. Moreover, the IC50 in data set [1] is greater than 10000 nM. Also, the IC50 in data set [2] came out at 324 nM. Besides, the IC50 in data set [3] worked out at 1.3 nM. Besides, in data set [4], the IC50 was determined as 4.7 nM.
In turn, `Cc1ccc(C#N)cc1Nc1nccc(-c2cc(C#N)c3c(c2)[C@@](C)(CO)CN3)n1` [Compound 132] displayed a melting point of 234 °C. In data set [1], the IC50 was 5010 nM. The IC50 in data set [2] was determined as 128 nM. The IC50 in data set [3] is 1.3 nM. In data set [4], the IC50 worked out at 2.2 nM.
The compound `Cc1ccc(C#N)cc1Nc1nccc(-c2cc(C#N)c3c(c2)[C@@](C)(CO)CN3)n1` [Compound 133] registered a melting point of 262 °C. Besides, the IC50 in data set [1] came out at 4360 nM. The IC50 in data set [2] came to 170 nM. Besides, the IC50 in data set [3] was 0.7 nM. In data set [4], the IC50 turned out to be 3 nM.
In turn, `[2H]C([2H])(O)[C@@]1(C)CNc2c(C#N)cc(-c3ccnc(Nc4cc(C#N)ccc4C)n3)cc21` [Compound 136] yielded a melting point of 219 °C. Besides, the IC50 in data set [1] (Homo sapiens, KMS-12-BM, 96 h) was greater than 10000 nM. Besides, the IC50 in data set [2] (Homo sapiens, JJN-3, 96 h) came out at 269 nM. Also, the IC50 in data set [3] is 1.7 nM. Further, in data set [4] (Homo sapiens, L-363, 2 h), the IC50 was less than 0.66 nM.
For `Cc1ccc(C#N)cc1Nc1nccc(-c2cc(C#N)c3c(c2)[C@@](C)(COC(=O)CN)CN3)n1` [Compound 137] the same measures were 290 °C, roughly 10000 nM, 545 nM, 6 nM and 2.7 nM.
For `Cc1ccc(C#N)cc1Nc1nccc(-c2cc(C#N)c3c(c2)[C@@](C)(COC(=O)[C@@H](N)C(C)C)CN3)n1` [Compound 139] the same measures were 202 °C, roughly 8910 nM, 302 nM, 56.2 nM and 26.9 nM.
For `Cc1ccc(C#N)cc1Nc1nccc(-c2cc(C#N)c3c(c2)[C@@](C)(COC(=O)[C@H](N)Cc2ccccc2)CN3)n1` [Compound 140] the same measures were 180 °C, roughly 9120 nM, 550 nM, 51.3 nM and 56.2 nM.
Turning to `Cc1ccc(C#N)cc1Nc1nccc(-c2cc(C#N)c3c(c2)[C@@](C)(COC(=O)[C@@H](C)N)CN3)n1` [Compound 141], the melting point was 212 °C. Moreover, the IC50 in data set [1] (Homo sapiens, KMS-12-BM, 96 h) was greater than 10000 nM. Also, in data set [2] (Homo sapiens, JJN-3, 96 h), the IC50 was 33 nM. For the same compound, in data set [3], the IC50 turned out to be 8.7 nM. Besides, the IC50 in data set [4] (Homo sapiens, L-363, 2 h) stood at 2.2 nM.
With `Cc1ccc(C#N)cc1Nc1nccc(-c2cc(C#N)c3c(c2)[C@@](C)(COC(=O)CC(=O)O)CN3)n1` [Compound 142a], the melting point stood at 138 °C. The IC50 in data set [1] (Homo sapiens, KMS-12-BM, 96 h) is greater than 10000 nM. The IC50 in data set [2] came to 3630 nM. Further, the IC50 in data set [3] was found to be 12 nM. In addition, the IC50 in data set [4] stood at 2.2 nM.
Consider `Cc1ccc(C#N)cc1Nc1nccc(-c2cc(C#N)c3c(c2)[C@@](C)(COC(=O)CC(=O)O)CN3)n1` [Compound 142b], for which the melting point came out at 214 °C. Besides, the IC50 in data set [1] was greater than 10000 nM. Moreover, in data set [2], the IC50 turned out to be 977 nM. The IC50 in data set [3] was 17 nM. For the same compound, the IC50 in data set [4] was roughly 58.9 nM.
In turn, `Cc1ccc(C#N)cc1Nc1nccc(-c2cc(C#N)c3c(c2)[C@@](C)(COS(=O)(=O)O)CN3)n1` [Compound 143] had a melting point greater than 270 °C. In addition, the IC50 in data set [1] (Homo sapiens, KMS-12-BM, 96 h) is greater than 10000 nM. Further, in data set [2] (Homo sapiens, JJN-3, 96 h), the IC50 worked out at 200 nM. The IC50 in data set [3] came out at 6.5 nM. Moreover, the IC50 in data set [4] (Homo sapiens, L-363, 2 h) turned out to be 12.3 nM.
For `Cc1ccc(C#N)cc1Nc1nccc(-c2cc(C#N)c3c(c2)[C@@](C)(COC(=O)CN2CCOCC2)CN3)n1` [Compound 146] the same measures were 186 °C, greater than 10000 nM, 78 nM, 19.9 nM and 5.2 nM.
For `CNC(=O)c1cc(Nc2nccc(-c3cc(C#N)c4c(c3)[C@@](C)(CO)CN4)n2)c(C)cc1F` [Compound 155] the same measures were 218 °C, greater than 10000 nM, 467 nM, 3.5 nM and 7.7 nM.
The compound `CNC(=O)c1cc(Nc2nccc(-c3cc(C#N)c4c(c3)[C@@](C)(CO)CN4)n2)c(OC2CC2)cc1F` [Compound 156] returned a melting point of 206 °C. The IC50 in data set [1] (Homo sapiens, KMS-12-BM, 96 h) was greater than 10000 nM. Also, the IC50 in data set [2] (Homo sapiens, JJN-3, 96 h) was 251 nM. The IC50 in data set [3] amounted to 4.8 nM. Moreover, in data set [4] (Homo sapiens, L-363, 2 h), the IC50 came to 7.8 nM.
With `CNC(=O)c1cc(Nc2nccc(-c3cc(C#N)c4c(c3)[C@@](C)(CO)CN4)n2)c(F)cc1OC1CC1` [Compound 157], the melting point is 235 °C. In data set [1] (Homo sapiens, KMS-12-BM, 96 h), the IC50 was roughly 7590 nM. Also, the IC50 in data set [2] (Homo sapiens, JJN-3, 96 h) was 178 nM. In addition, the IC50 in data set [3] stood at 4.9 nM. The IC50 in data set [4] (Homo sapiens, L-363, 2 h) worked out at 12.9 nM.
For `Cc1ccc(C(=O)NCCN2CCOCC2)cc1Nc1nccc(-c2cc(C#N)c3c(c2)[C@@](C)(CO)CN3)n1` [Compound 159] the same measures were 140 °C, greater than 10000 nM, 4790 nM, 5.5 nM and 20.4 nM.
Taken in the same sequence, the figures for `Cc1ccc(C(=O)N(C)C)cc1Nc1nccc(-c2cc(C#N)c3c(c2)[C@@](C)(CO)CN3)n1` [Compound 160] were 206 °C, greater than 10000 nM, 4790 nM, 11.2 nM and 64.6 nM.
Taken in the same sequence, the figures for `CNC(=O)c1cc(Nc2nccc(-c3cc(C#N)c4c(c3)[C@@](C)(CO)CN4)n2)c(F)cc1F` [Compound 165] were 224 °C, roughly 5250 nM, 1120 nM, 3.6 nM and 6 nM.
Take `Cc1cc(CCCN)c(C#N)cc1Nc1nccc(-c2cc(C#N)c3c(c2)[C@@](C)(CO)CN3)n1` [Compound 170]: the melting point stood at 207 °C. Also, the IC50 in data set [1] (Homo sapiens, KMS-12-BM, 96 h) is roughly 4680 nM. The IC50 in data set [2] (Homo sapiens, JJN-3, 96 h) is 81 nM. In addition, the IC50 in data set [3] was found to be 1 nM. The IC50 in data set [4] (Homo sapiens, L-363, 2 h) was 2.3 nM.
For `Cc1cc(C#CCN)c(C#N)cc1Nc1nccc(-c2cc(C#N)c3c(c2)[C@@](C)(CO)CN3)n1` [Compound 171] the same measures were 249 °C, greater than 10000 nM, 955 nM, 1.1 nM and 34.7 nM.
Taken in the same sequence, the figures for `CCC(=O)NCCCc1cc(C)c(Nc2nccc(-c3cc(C#N)c4c(c3)[C@@](C)(CO)CN4)n2)cc1C#N` [Compound 172] were 193 °C, greater than 10000 nM, 65 nM, 4.8 nM and 2.4 nM.
On to `Cc1cc(CCN2CC(F)C2)c(C#N)cc1Nc1nccc(-c2cc(C#N)c3c(c2)[C@@](C)(CO)CN3)n1` [Compound 174], for which the melting point turned out to be 211 °C. Further, the IC50 in data set [1] (Homo sapiens, KMS-12-BM, 96 h) is greater than 10000 nM. In addition, the IC50 in data set [2] (Homo sapiens, JJN-3, 96 h) turned out to be 71 nM. In addition, the IC50 in data set [3] is 3.5 nM. The IC50 in data set [4] (Homo sapiens, L-363, 2 h) was 2 nM.
Taken in the same sequence, the figures for `Cc1cc(C2CCN(C)CC2)c(C#N)cc1Nc1nccc(-c2cc(C#N)c3c(c2)[C@@](C)(CO)CN3)n1` [Compound 175] were 226 °C, roughly 191 nM, 27 nM, 1.8 nM and 2.8 nM.
On to `Cc1cc(C2CCCN(C)C2)c(C#N)cc1Nc1nccc(-c2cc(C#N)c3c(c2)[C@@](C)(CO)CN3)n1` (stereo partly drawn) [Compound 177], for which the melting point is 222 °C. Also, the IC50 in data set [1] was roughly 246 nM. In addition, in data set [2], the IC50 came out at 14 nM. Moreover, in data set [3], the IC50 came out at 3.2 nM. Besides, the IC50 in data set [4] (Homo sapiens, L-363, 2 h) stood at 1.2 nM.
The compound `Cc1cc(C2CCCN(C)C2)c(C#N)cc1Nc1nccc(-c2cc(C#N)c3c(c2)[C@@](C)(CO)CN3)n1` (stereo partly drawn) [Compound 179] registered a melting point of 188 °C. Also, the IC50 in data set [1] stood at 1290 nM. The IC50 in data set [2] came out at 58 nM. The IC50 in data set [3] was found to be 2.2 nM. For the same compound, the IC50 in data set [4] turned out to be 1.4 nM.
The compound `Cc1cc(F)c(C(=O)NCC2COC2)cc1Nc1nccc(-c2cc(C#N)c3c(c2)[C@@](C)(CO)CN3)n1` [Compound 183] displayed a melting point of 209 °C. The IC50 in data set [1] (Homo sapiens, KMS-12-BM, 96 h) was greater than 10000 nM. The IC50 in data set [2] (Homo sapiens, JJN-3, 96 h) came to 501 nM. Further, the IC50 in data set [3] came out at 9.1 nM. Also, the IC50 in data set [4] (Homo sapiens, L-363, 2 h) was 7.1 nM.
With `C[C@]1(CO)CNc2c(C#N)cc(-c3ccnc(Nc4cc(C#N)ccc4CCCCN)n3)cc21` [Compound 184], the melting point turned out to be 134 °C. Further, the IC50 in data set [1] (Homo sapiens, KMS-12-BM, 96 h) is greater than 10000 nM. Also, in data set [2] (Homo sapiens, JJN-3, 96 h), the IC50 came out at 178 nM. Further, the IC50 in data set [3] stood at 2.8 nM. Besides, in data set [4] (Homo sapiens, L-363, 2 h), the IC50 was determined as 19.1 nM.

Values taken from patent US11180487B2, “Substituted cyanoindoline derivatives as NIK inhibitors” (Janssen Pharmaceutica NV, priority 2016, dated 2021).
